In patent US6602825B1, “1-Aryl-1,3,5-triazine-4-thione-2,6-diones, production thereof and use thereof as herbicides” (BASF Aktiengesellschaft, priority 2001, dated 2003) one finds melting point data, which are given here for 3 compounds.

SMILES strings stand for the structures.

Consider `Cn1c(=S)n(C)c(=O)n(-c2cc(C(=O)O)c(Cl)cc2F)c1=O` [Compound No. 28, 2-Chloro-5-(3,5-dimethyl-2,6-dioxo-4-thioxo-[1,3,5]triazinan-1-yl)-4-fluorobenzoic acid], for which the melting point was 225 to 229 °C.

`CCc1nc2c(Cl)cc(F)c(-n3c(=O)n(C)c(=S)n(C)c3=O)c2o1` [Compound No. 66, 3-(4-chloro-2-ethyl-6-fluorobenzoxazol-7-yl)-1,5-dimethyl-6-thioxo-[1,3,5]triazinane-2,4-dione] gave a melting point of 156 to 159 °C.

`Cn1c(=S)n(C)c(=O)n(-c2c(F)cc(Cl)c3ncoc23)c1=O` [Compound No. 65, 3-(4-chloro-6-fluorobenzoxazol-7-yl)-1,5-dimethyl-6-thioxo-[1,3,5]triazinane-2,4-dione] came in with a melting point of 209 to 211 °C.
